How the values were obtained:
BCL6 [1] = biological target: T1, BCL6 (Homo sapiens (Human), UniProt P41182); experiment: BCL6 TR-FRET assay (BCL6-Avitag-Biotin / BCoR-Cy5 peptide); format: binding; details: read-out: IC50
In short: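 After 30 min room-temperature preincubation of compound titrations with 2 nM biotinylated BCL6-Avitag, 100 nM Cy5-labelled BCoR peptide plus 2 nM Eu-streptavidin were added and TR-FRET read 2 h later. HEPES pH 7.5/125 mM NaCl buffer with Triton X, glutathione (or DTT) and BSA.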

BCL6 [2] = biological target: T1, BCL6; experiment: Immunofluorescence high content imaging of BCL6 degradation in T47D cells; format: cell-based; details: T47D
In short: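 Following a 3-day incubation with serially diluted bifunctional compounds (final top 0.1 or 1 μM), T47D cells were PFA-fixed and immunostained for BCL6. Nuclear BCL6 signal was captured on a high-content imager.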

Row | SMILES | IC50 (BCL6 [1]) [nM] | Dmax (BCL6 [2]) [%]
1 | CNC(=O)COc1cc2cc(Nc3nc(N4CCN(CC5CCC6(CC5)CN(c5cccc7c5C(=O)N(C5CCC(=O)NC5=O)C7=O)C6)CC4)ncc3Cl)ccc2n(C(C)C)c1=O (centres unmarked) [compound 452, 2-{[6-({5-chloro-2-[4-({2-[2-(2,6-dioxopiperidin-3-yl)-1,3-dioxo-2,3-dihydro-1H-isoindol-4-yl]-2-azaspiro[3.5]nonan-7-yl}methyl)piperazin-1-yl]pyrimidin-4-yl}amino)-2-oxo-1-(propan-2-yl)-1,2-dihydroquinolin-3-yl]oxy}-N-methylacetamide] | < 10 | ≥ 70
2 | CNC(=O)COc1cc2cc(Nc3nc(N4CCC(O[C@H]5C[C@H](COc6ccc7c(c6)C(=O)N(C6CCC(=O)NC6=O)C7=O)N(C)C5)CC4)ncc3Cl)ccc2n(C(C)C)c1=O (stereo partly drawn) [compound 458, 2-[(6-{[5-chloro-2-(4-{[(3S,5R)-5-({[2-(2,6-dioxopiperidin-3-yl)-1,3-dioxo-2,3-dihydro-1H-isoindol-5-yl]oxy}methyl)-1-methylpyrrolidin-3-yl]oxy}piperidin-1-yl)pyrimidin-4-yl]amino}-2-oxo-1-(propan-2-yl)-1,2-dihydroquinolin-3-yl)oxy]-N-methylacetamide] | 50 to 100 | ≥ 70
3 | CNC(=O)COc1cc2cc(Nc3nc(N4CCC(O[C@@H]5C[C@H](Oc6ccc7c(c6)C(=O)N(C6CCC(=O)NC6=O)C7=O)CN(C)C5)CC4)ncc3Cl)ccc2n(C(C)C)c1=O (stereo partly drawn) [compound 461, 2-[(6-{[5-chloro-2-(4-{[(3R,5S)-5-{[2-(2,6-dioxopiperidin-3-yl)-1,3-dioxo-2,3-dihydro-1H-isoindol-5-yl]oxy}-1-methylpiperidin-3-yl]oxy}piperidin-1-yl)pyrimidin-4-yl]amino}-2-oxo-1-(propan-2-yl)-1,2-dihydroquinolin-3-yl)oxy]-N-methylacetamide] | 10 to 50 | 50 to 70
4 | CNC(=O)COc1cc2cc(Nc3nc(N4CCC(CN5CCN(c6cc(OC)cc(C(=O)NC7CCC(=O)NC7=O)c6F)CC5)CC4)ncc3Cl)ccc2n(C(C)C)c1=O (centres unmarked) [compound 466, 3-[4-({1-[5-chloro-4-({3-[(methylcarbamoyl)methoxy]-2-oxo-1-(propan-2-yl)-1,2-dihydroquinolin-6-yl}amino)pyrimidin-2-yl]piperidin-4-yl}methyl)piperazin-1-yl]-N-(2,6-dioxopiperidin-3-yl)-2-fluoro-5-methoxybenzamide] | < 10 | 50 to 70
5 | CNC(=O)COc1cc2cc(Nc3nc(N(C)C)ncc3Cl)ccc2n(CCCOc2ccc3c(c2)C(=O)N(C2CCC(=O)NC2=O)C3=O)c1=O (centres unmarked) [compound 469, 2-[(6-{[5-chloro-2-(dimethylamino)pyrimidin-4-yl]amino}-1-(3-{[2-(2,6-dioxopiperidin-3-yl)-1,3-dioxo-2,3-dihydro-1H-isoindol-5-yl]oxy}propyl)-2-oxo-1,2-dihydroquinolin-3-yl)oxy]-N-methylacetamide] | 10 to 50 | < 50

Next, values leading:

Row | IC50 (BCL6 [1]) [nM] | Dmax (BCL6 [2]) [%] | SMILES
6 | < 10 | 50 to 70 | CNC(=O)COc1cc2cc(Nc3nc(N4CCN(CC5CCC6(CC5)CN(c5ccc7c(c5)C(=O)N(C5CCC(=O)NC5=O)C7=O)C6)CC4)ncc3Cl)ccc2n(C(C)C)c1=O (centres unmarked) [compound 451, 2-{[6-({5-chloro-2-[4-({2-[2-(2,6-dioxopiperidin-3-yl)-1,3-dioxo-2,3-dihydro-1H-isoindol-5-yl]-2-azaspiro[3.5]nonan-7-yl}methyl)piperazin-1-yl]pyrimidin-4-yl}amino)-2-oxo-1-(propan-2-yl)-1,2-dihydroquinolin-3-yl]oxy}-N-methylacetamide]
7 | 10 to 50 | ≥ 70 | CNC(=O)COc1cc2cc(Nc3nc(N4CCC5(CC4)CC(OC4CCN(c6cccc(C(=O)NC7CCC(=O)NC7=O)c6F)CC4)C5)ncc3Cl)ccc2n(C(C)C)c1=O (centres unmarked) [compound 453, 3-[4-({7-[5-chloro-4-({3-[(methylcarbamoyl)methoxy]-2-oxo-1-(propan-2-yl)-1,2-dihydroquinolin-6-yl}amino)pyrimidin-2-yl]-7-azaspiro[3.5]nonan-2-yl}oxy)piperidin-1-yl]-N-(2,6-dioxopiperidin-3-yl)-2-fluorobenzamide]
8 | < 10 | ≥ 70 | CNC(=O)COc1cc2cc(Nc3nc(N4CCN(CC5CCN(c6cccc7c6C(=O)N(C6CCC(=O)NC6=O)C7=O)CC5)CC4)ncc3Cl)ccc2n(CCOC)c1=O (centres unmarked) [compound 454, 2-{[6-({5-chloro-2-[4-({1-[2-(2,6-dioxopiperidin-3-yl)-1,3-dioxo-2,3-dihydro-1H-isoindol-4-yl]piperidin-4-yl}methyl)piperazin-1-yl]pyrimidin-4-yl}amino)-1-(2-methoxyethyl)-2-oxo-1,2-dihydroquinolin-3-yl]oxy}-N-methylacetamide]
9 | 50 to 100 | ≥ 70 | CNC(=O)COc1cc2cc(Nc3nc(N4CCC[C@H](COc5cccc6c5C(=O)N(C5CCC(=O)NC5=O)C6=O)C4)ncc3Cl)ccc2n(CCOC)c1=O (stereo partly drawn) [compound 455, 2-{[6-({5-chloro-2-[(3S)-3-({[2-(2,6-dioxopiperidin-3-yl)-1,3-dioxo-2,3-dihydro-1H-isoindol-4-yl]oxy}methyl)piperidin-1-yl]pyrimidin-4-yl}amino)-1-(2-methoxyethyl)-2-oxo-1,2-dihydroquinolin-3-yl]oxy}-N-methylacetamide]
10 | ≥ 100 | ≥ 70 | CNC(=O)COc1cc2cc(Nc3nc(N4CCC(CN5CCC(c6cc(OC)cc(C(=O)NC7CCC(=O)NC7=O)c6F)CC5)CC4)ncc3Cl)ccc2n(C(C)C)c1=O (centres unmarked) [compound 462, 3-[1-({1-[5-chloro-4-({3-[(methylcarbamoyl)methoxy]-2-oxo-1-(propan-2-yl)-1,2-dihydroquinolin-6-yl}amino)pyrimidin-2-yl]piperidin-4-yl}methyl)piperidin-4-yl]-N-(2,6-dioxopiperidin-3-yl)-2-fluoro-5-methoxybenzamide]
11 | 10 to 50 | < 50 | CNC(=O)COc1cc2cc(Nc3nc(N4CCC(O[C@@H]5C[C@@H](COc6ccc7c(c6)C(=O)N(C6CCC(=O)NC6=O)C7=O)N(C)C5)CC4)ncc3Cl)ccc2n(C(C)C)c1=O (stereo partly drawn) [compound 463, 2-[(6-{[5-chloro-2-(4-{[(3R,5S)-5-({[2-(2,6-dioxopiperidin-3-yl)-1,3-dioxo-2,3-dihydro-1H-isoindol-5-yl]oxy}methyl)-1-methylpyrrolidin-3-yl]oxy}piperidin-1-yl)pyrimidin-4-yl]amino}-2-oxo-1-(propan-2-yl)-1,2-dihydroquinolin-3-yl)oxy]-N-methylacetamide]
12 | < 10 | 50 to 70 | CNC(=O)COc1cc2cc(Nc3nc(N4CCN(CC5CCN(c6cc(OC)cc(C(=O)NC7CCC(=O)NC7=O)c6F)CC5)CC4)ncc3Cl)ccc2n(C)c1=O (centres unmarked) [compound 465, 3-[4-({4-[5-chloro-4-({1-methyl-3-[(methylcarbamoyl)methoxy]-2-oxo-1,2-dihydroquinolin-6-yl}amino)pyrimidin-2-yl]piperazin-1-yl}methyl)piperidin-1-yl]-N-(2,6-dioxopiperidin-3-yl)-2-fluoro-5-methoxybenzamide]
13 | 10 to 50 | < 50 | CNC(=O)COc1cc2cc(Nc3nc(N4CCC(CN5CCC(c6cc(OC)cc(C(=O)NC7CCC(=O)NC7=O)c6F)CC5)CC4)ncc3Cl)ccc2n(C)c1=O (centres unmarked) [compound 467, 3-[1-({1-[5-chloro-4-({1-methyl-3-[(methylcarbamoyl)methoxy]-2-oxo-1,2-dihydroquinolin-6-yl}amino)pyrimidin-2-yl]piperidin-4-yl}methyl)piperidin-4-yl]-N-(2,6-dioxopiperidin-3-yl)-2-fluoro-5-methoxybenzamide]

From patent US12310975B2, “Modulators of BCL6 proteolysis and associated methods of use” (Arvinas Operations, Inc., priority 2019, dated 2025)
